Laboratory results from ChEMBL document CHEMBL1201862, “PubChem BioAssay data set” (2004).
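Where inhibition never reached the appropriate level, the endpoint shown equals the highest concentration tested. Otherwise, values were interpolated linearly from a five-concentration, 48-hour dose response in 96-well plates. Abbreviation: GI50, concentration required for 50% inhibition of growth.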 Calls of active or inactive are those of the source. Rule as the data show it: active = GI50 up to about 1.1 µM and inactive = higher.

What was measured:
Assay in all cases: NCI anticancer screen, dose series, 48 h
SK-MEL-28 = test system: SK-MEL-28
HCT-15 = test system: HCT-15
IGROV-1 = test system: IGROV-1
T47D = test system: T47D
SR = test system: SR
K562 = test system: K562
PC-3 = test system: PC-3
DU-145 = test system: DU-145
SF-268 = test system: SF-268
HOP-62 = test system: HOP-62
BT-549 = test system: BT-549
SN12C = test system: SN12C
COLO 205 = test system: COLO 205
SK-MEL-5 = test system: SK-MEL-5
KM12 = test system: KM12
NCI-H522 = test system: NCI-H522
A549 = test system: A549
CAKI-1 = test system: CAKI-1
M14 = test system: M14
HCT-116 = test system: HCT-116
A498 = test system: A498
MDA-N = test system: MDA-N
786-0 = test system: 786-0
MCF7 = test system: MCF7
ACHN = test system: ACHN
OVCAR-3 = test system: OVCAR-3
MOLT-4 = test system: MOLT-4
MDA-MB-231 = test system: MDA-MB-231
SF-295 = test system: SF-295
LOX IMVI = test system: LOX IMVI
NCI-H226 = test system: NCI-H226
SK-MEL-2 = test system: SK-MEL-2
UACC-257 = test system: UACC-257
CCRF-CEM = test system: CCRF-CEM
NCI-H23 = test system: NCI-H23
OVCAR-4 = test system: OVCAR-4
HT-29 = test system: HT-29
SNB-19 = test system: SNB-19
OVCAR-8 = test system: OVCAR-8
U-251 = test system: U-251
OVCAR-5 = test system: OVCAR-5
HL-60 = test system: HL-60
UACC-62 = test system: UACC-62
UO-31 = test system: UO-31
SK-OV-3 = test system: SK-OV-3
SF-539 = test system: SF-539
NCI-H460 = test system: NCI-H460
NCI/ADR-RES = test system: NCI/ADR-RES
RPMI-8226 = test system: RPMI-8226
SNB-75 = test system: SNB-75
Hs-578T = test system: Hs-578T
EKVX = test system: EKVX
TK-10 = test system: TK-10
MDA-MB-435 = test system: MDA-MB-435
SW-620 = test system: SW-620
RXF 393 = test system: RXF 393
Malme-3M = test system: Malme-3M
HCC 2998 = test system: HCC 2998

CC(C)NC(=O)OCC[S+]([O-])c1c(Cl)c(Cl)nn1C (configuration not stated)
GI50 (SK-MEL-28): 28.5 µM (inactive) | GI50 (HCT-15): 20 µM | GI50 (IGROV-1): 37.9 µM (inactive) | GI50 (T47D): 38.1 µM (inactive) | GI50 (SR): 48.9 µM (inactive) | GI50 (K562): 34 µM (inactive) | GI50 (PC-3): > 100 µM (inactive) | GI50 (DU-145): > 100 µM (inactive) | GI50 (SF-268): > 100 µM (inactive) | GI50 (HOP-62): 69.3 µM (inactive) | GI50 (BT-549): > 10 µM (inactive) | GI50 (SN12C): 70.1 µM (inactive) | GI50 (COLO 205): 21.2 µM (inactive) | GI50 (SK-MEL-5): 40.9 µM (inactive) | GI50 (KM12): > 100 µM (inactive) | GI50 (NCI-H522): 18.5 µM (inactive) | GI50 (A549): > 100 µM (inactive) | GI50 (CAKI-1): 37.6 µM (inactive) | GI50 (M14): 21.1 µM (inactive) | GI50 (HCT-116): 33.3 µM (inactive) | GI50 (A498): > 100 µM (inactive) | GI50 (MDA-N): 38.7 µM (inactive) | GI50 (786-0): 24.9 µM (inactive) | GI50 (MCF7): 29.4 µM (inactive) | GI50 (ACHN): 46.1 µM (inactive) | GI50 (OVCAR-3): 40.2 µM (inactive) | GI50 (MOLT-4): 34.8 µM (inactive) | GI50 (MDA-MB-231): 28.6 µM (inactive) | GI50 (SF-295): > 100 µM (inactive) | GI50 (LOX IMVI): 0.724 µM (active) | GI50 (NCI-H226): > 100 µM (inactive) | GI50 (SK-MEL-2): > 100 µM (inactive) | GI50 (UACC-257): > 10 µM (inactive) | GI50 (CCRF-CEM): 27.5 µM (inactive) | GI50 (NCI-H23): 42.9 µM (inactive) | GI50 (OVCAR-4): 49.8 µM (inactive) | GI50 (HT-29): 34 µM (inactive) | GI50 (SNB-19): > 100 µM (inactive) | GI50 (OVCAR-8): > 10 µM (inactive) | GI50 (U-251): 33.2 µM (inactive) | GI50 (OVCAR-5): 49 µM (inactive) | GI50 (HL-60): 47.5 µM (inactive) | GI50 (UACC-62): 26.6 µM (inactive) | GI50 (UO-31): > 100 µM (inactive) | GI50 (SK-OV-3): > 100 µM (inactive) | GI50 (SF-539): > 100 µM (inactive) | GI50 (NCI-H460): > 100 µM (inactive) | GI50 (NCI/ADR-RES): 42.8 µM (inactive) | GI50 (RPMI-8226): 64.9 µM (inactive) | GI50 (SNB-75): > 100 µM (inactive) | GI50 (Hs-578T): > 100 µM (inactive) | GI50 (EKVX): > 100 µM (inactive) | GI50 (TK-10): > 100 µM (inactive) | GI50 (MDA-MB-435): 22.3 µM (inactive) | GI50 (SW-620): 36.2 µM (inactive)

COc1cccc(NC(=O)CC(=O)N2N=C(C)C(/N=N/c3ccc(C(=O)O)cc3)C2=O)c1 (configuration not stated)
GI50 (SK-MEL-28): > 100 µM (inactive) | GI50 (HCT-15): > 100 µM | GI50 (IGROV-1): 46.7 µM (inactive) | GI50 (T47D): > 100 µM (inactive) | GI50 (SR): > 100 µM (inactive) | GI50 (K562): > 100 µM (inactive) | GI50 (PC-3): > 100 µM (inactive) | GI50 (DU-145): > 100 µM (inactive) | GI50 (SF-268): > 100 µM (inactive) | GI50 (HOP-62): > 100 µM (inactive) | GI50 (BT-549): > 100 µM (inactive) | GI50 (SN12C): > 100 µM (inactive) | GI50 (COLO 205): > 100 µM (inactive) | GI50 (RXF 393): > 100 µM (inactive) | GI50 (SK-MEL-5): > 100 µM (inactive) | GI50 (KM12): > 100 µM (inactive) | GI50 (NCI-H522): 43.1 µM (inactive) | GI50 (A549): > 100 µM (inactive) | GI50 (CAKI-1): > 100 µM (inactive) | GI50 (M14): > 100 µM (inactive) | GI50 (HCT-116): > 100 µM (inactive) | GI50 (MDA-N): > 100 µM (inactive) | GI50 (786-0): > 100 µM (inactive) | GI50 (MCF7): > 100 µM (inactive) | GI50 (ACHN): > 100 µM (inactive) | GI50 (OVCAR-3): > 100 µM (inactive) | GI50 (MDA-MB-231): > 100 µM (inactive) | GI50 (SF-295): > 100 µM (inactive) | GI50 (LOX IMVI): > 100 µM (inactive) | GI50 (SK-MEL-2): > 100 µM (inactive) | GI50 (UACC-257): > 100 µM (inactive) | GI50 (CCRF-CEM): > 100 µM (inactive) | GI50 (NCI-H23): > 100 µM (inactive) | GI50 (OVCAR-4): > 100 µM (inactive) | GI50 (HT-29): 93.8 µM (inactive) | GI50 (Malme-3M): 56.6 µM (inactive) | GI50 (SNB-19): > 100 µM (inactive) | GI50 (OVCAR-8): > 100 µM (inactive) | GI50 (OVCAR-5): > 100 µM (inactive) | GI50 (HL-60): > 100 µM (inactive) | GI50 (UACC-62): > 100 µM (inactive) | GI50 (UO-31): > 100 µM (inactive) | GI50 (SF-539): > 100 µM (inactive) | GI50 (HCC 2998): > 100 µM (inactive) | GI50 (NCI/ADR-RES): > 100 µM (inactive) | GI50 (RPMI-8226): > 100 µM (inactive) | GI50 (SNB-75): 16.6 µM (inactive) | GI50 (Hs-578T): > 100 µM (inactive) | GI50 (EKVX): 25.4 µM (inactive) | GI50 (TK-10): > 100 µM (inactive) | GI50 (MDA-MB-435): > 100 µM (inactive) | GI50 (SW-620): > 100 µM (inactive)
